Like-named read-outs stand apart in the source and are kept apart here.
Details: SEM images; for Ave. Aspect Ratio (length/width): Hitachi S-300N, length divided by width
Procedure: All images were obtained using a Hitachi S-300N Scanning electron Microscope.
Procedure: Aspect ratio was determined by superimposing a micron scale over the particle images and visually comparing the width and length of the particles to the scale. Length divided by width determines the aspect ratio. The images were obtained using a Hitachi S-300N Scanning electron Microscope.

| SMILES | Ave. Aspect Ratio (length/width) | particles having an aspect ratio greater than 15 | Ave. Aspect Ratio (length/width) (listed as commercially available milled copper pyrithione) |
| --- | --- | --- | --- |
| On1ccccc1=S.On1ccccc1=S.[Cu] [Sample 507C, copper pyrithione] | 12.2 | – | – |
| On1ccccc1=S.On1ccccc1=S.[Cu] [Sample 508D, copper pyrithione] | 9.1 | – | – |
| On1ccccc1=S.On1ccccc1=S.[Cu] [Sample 513, copper pyrithione] | 4.3 | none of the particles | 4.3 |

— patent publication US20130183362A1, “SYNTHESIS OF ZINC ACRYLATE COPOLYMER FROM ACID FUNCTIONAL COPOLYMER, ZINC PYRITHIONE, AND COPPER COMPOUND” (ARCH CHEMICALS, INC., priority 2010, published 2013)
